Legend:
[1] = molecular target: T1, ARAF^SSDD (ARAF^SSDD/MEK1) (Homo sapiens, UniProt P10398, G300S/Y301D/Y302D); assay: TR-FRET MEK phosphorylation assay, bell-shaped fit; assay type: biochemical
[2] = molecular target: T1, ARAF^SSDD (ARAF^SSDD/MEK1); assay: biochemical
[3] = molecular target: T2, CRAF^SSDD (CRAF^SSDD/MEK1) (Homo sapiens, UniProt P04049, Y340D/Y341D); assay: TR-FRET MEK phosphorylation assay, bell-shaped fit; assay type: biochemical
[4] = molecular target: T2, CRAF^SSDD (CRAF^SSDD/MEK1); assay: biochemical
[5] = molecular target: T3, CRAF monomer complex (CRAF/MEK1 SASA) (Homo sapiens, UniProt P04049); assay: TR-FRET MEK phosphorylation assay, bell-shaped fit; assay type: biochemical
[6] = molecular target: BRAF monomer complex (BRAF/MEK1 SASA) (Homo sapiens, UniProt P15056); assay: TR-FRET MEK phosphorylation assay, bell-shaped fit; assay type: biochemical; settings: […] enzyme, […] ATP, […] MEK-B, […] DMSO; unreliable
[7] = molecular target: T4, ARAF monomer complex (ARAF/MEK1 SASA) (Homo sapiens, UniProt P10398); assay: TR-FRET MEK phosphorylation assay, bell-shaped fit; assay type: biochemical
[8] = molecular target: T4, ARAF monomer complex (ARAF/MEK1 SASA); assay: TR-FRET MEK phosphorylation assay, bell-shaped fit; assay type: biochemical; remark: listed apart in the source
[9] = molecular target: T3, CRAF monomer complex (CRAF/MEK1 SASA); assay: TR-FRET MEK phosphorylation assay, bell-shaped fit; assay type: biochemical; remark: listed apart in the source

T1 sequence (P10398 274-606 G300S/Y301D/Y302D): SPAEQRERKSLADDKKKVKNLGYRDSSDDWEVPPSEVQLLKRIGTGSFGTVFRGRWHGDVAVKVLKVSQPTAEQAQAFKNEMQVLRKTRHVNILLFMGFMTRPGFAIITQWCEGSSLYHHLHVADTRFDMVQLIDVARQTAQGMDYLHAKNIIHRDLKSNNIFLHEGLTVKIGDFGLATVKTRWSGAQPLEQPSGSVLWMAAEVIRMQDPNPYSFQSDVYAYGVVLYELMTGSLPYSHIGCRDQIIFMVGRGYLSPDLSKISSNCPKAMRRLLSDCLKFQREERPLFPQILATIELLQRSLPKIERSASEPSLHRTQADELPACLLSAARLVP
T1 sequence (Q02750 whole entry S218A/S222A partner): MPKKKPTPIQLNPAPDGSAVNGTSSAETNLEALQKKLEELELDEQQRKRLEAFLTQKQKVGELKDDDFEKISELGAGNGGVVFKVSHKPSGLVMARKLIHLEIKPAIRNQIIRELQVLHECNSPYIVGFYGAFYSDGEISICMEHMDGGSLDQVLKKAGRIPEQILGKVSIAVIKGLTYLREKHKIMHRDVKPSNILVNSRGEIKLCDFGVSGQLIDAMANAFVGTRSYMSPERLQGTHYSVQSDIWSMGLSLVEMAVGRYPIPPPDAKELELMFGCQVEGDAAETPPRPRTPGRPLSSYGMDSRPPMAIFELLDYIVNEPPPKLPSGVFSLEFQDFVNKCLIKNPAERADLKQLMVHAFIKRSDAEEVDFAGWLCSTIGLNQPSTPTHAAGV
T2 sequence (P04049 314-618 Y340D/Y341D): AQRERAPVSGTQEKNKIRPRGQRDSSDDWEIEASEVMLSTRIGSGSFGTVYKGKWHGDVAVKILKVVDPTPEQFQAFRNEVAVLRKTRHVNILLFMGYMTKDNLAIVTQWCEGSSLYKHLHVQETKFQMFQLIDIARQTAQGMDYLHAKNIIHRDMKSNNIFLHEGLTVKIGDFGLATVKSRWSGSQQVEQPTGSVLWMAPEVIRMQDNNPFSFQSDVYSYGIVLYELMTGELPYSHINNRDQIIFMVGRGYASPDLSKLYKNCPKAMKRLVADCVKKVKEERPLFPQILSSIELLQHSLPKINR
T2 sequence (Q02750 whole entry S218A/S222A partner): as the sequence (Q02750 whole entry S218A/S222A partner) above
T4 sequence (P10398 282-579): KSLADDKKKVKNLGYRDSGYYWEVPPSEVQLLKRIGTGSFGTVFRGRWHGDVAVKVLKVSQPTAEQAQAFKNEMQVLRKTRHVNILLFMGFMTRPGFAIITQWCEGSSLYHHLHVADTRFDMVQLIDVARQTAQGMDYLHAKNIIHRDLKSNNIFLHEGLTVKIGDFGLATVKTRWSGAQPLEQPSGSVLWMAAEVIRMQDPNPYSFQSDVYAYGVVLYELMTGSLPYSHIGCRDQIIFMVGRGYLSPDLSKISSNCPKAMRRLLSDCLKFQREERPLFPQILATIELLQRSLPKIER
T4 sequence (Q02750 whole entry S218A/S222A partner): as the sequence (Q02750 whole entry S218A/S222A partner) above
T3 sequence (P04049 324-618): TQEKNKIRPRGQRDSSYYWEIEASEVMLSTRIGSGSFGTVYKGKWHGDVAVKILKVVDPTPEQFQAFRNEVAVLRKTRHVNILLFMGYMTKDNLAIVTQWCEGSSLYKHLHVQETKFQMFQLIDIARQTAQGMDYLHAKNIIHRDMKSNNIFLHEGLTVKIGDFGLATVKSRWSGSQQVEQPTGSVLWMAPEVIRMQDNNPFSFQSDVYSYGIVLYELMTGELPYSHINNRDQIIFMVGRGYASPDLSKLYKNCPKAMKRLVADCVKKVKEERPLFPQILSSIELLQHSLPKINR
T3 sequence (Q02750 whole entry S218A/S222A partner): as the sequence (Q02750 whole entry S218A/S222A partner) above
Sequence of BRAF monomer complex (BRAF/MEK1 SASA) (P15056 445-723): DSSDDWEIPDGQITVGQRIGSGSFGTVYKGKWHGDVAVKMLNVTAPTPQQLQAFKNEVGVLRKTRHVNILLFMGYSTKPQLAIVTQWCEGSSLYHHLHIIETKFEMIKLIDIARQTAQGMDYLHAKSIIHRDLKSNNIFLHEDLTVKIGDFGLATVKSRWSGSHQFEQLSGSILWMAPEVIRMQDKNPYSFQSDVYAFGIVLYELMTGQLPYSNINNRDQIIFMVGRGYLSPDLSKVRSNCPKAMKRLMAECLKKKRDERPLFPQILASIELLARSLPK
Sequence of BRAF monomer complex (BRAF/MEK1 SASA) (Q02750 whole entry S218A/S222A partner): as the sequence (Q02750 whole entry S218A/S222A partner) above

IC50 [1] [nM] | AC50 [2] [nM] | IC50 [3] [nM] | AC50 [4] [nM] | IC50 [5] [nM] | IC50 [6] [nM] | AC50 [7] [nM] | IC50 [8] [nM] | AC50 [9] [nM] | Compound
44.4 ± 17.6 | 1.72 ± 1.24 |  |  |  |  |  |  |  | Cc1ccc(NC(=O)c2cccc(C(C)(C)C#N)c2)cc1Nc1ccc2ncn(C)c(=O)c2c1 [AZ628]
 |  | 34.6 ± 5.15 | 0.07 ± 0.06 |  |  |  |  |  | Cc1ccc2c(Nc3cccc(Cl)c3F)nccc2c1NC(=O)c1csc2c(N)ncnc12 [Belvarafenib]
673 ± 488 | 13.3 ± 5.15 | 79.2 ± 24.1 | 0.06 ± 0.04 |  |  |  |  |  | Cc1ccc(NC(=O)c2ccnc(C(F)(F)F)c2)cc1-c1cc(OCCO)nc(N2CCOCC2)c1 [Naporafenib]
> 10000 | 7.62 ± 2.83 | > 10000 | 3.46 ± 1.49 | > 10000 | 1915 ± 889 | 11.7 ± 14.3 | > 10000 | 242 ± 19.5 | CN(C)CCOc1ccc(-c2nc(-c3ccncc3)c(-c3ccc4c(c3)CC/C4=N\O)[nH]2)cc1 [SB590885]
